Tests used:
IL-8 = target: T1, IL-8 (Homo sapiens, UniProt P10145); assay: FP competition assay; format: binding; conditions: FP competition with probe 15 (table footnote)
T1 sequence (P10145 21-99): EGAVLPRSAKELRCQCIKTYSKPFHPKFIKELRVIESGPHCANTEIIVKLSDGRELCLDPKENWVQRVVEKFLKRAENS

BMP-2 = target: T2, BMP-2 (Homo sapiens, UniProt P12643); assay: FP competition assay; format: binding; conditions: FP competition with probe 15 (table footnote)
T2 sequence (P12643 283-396): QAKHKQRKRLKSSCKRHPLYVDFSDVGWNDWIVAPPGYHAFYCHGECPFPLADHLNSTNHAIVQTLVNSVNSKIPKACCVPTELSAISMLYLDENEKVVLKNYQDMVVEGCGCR

Sclerostin = target: T3, Sclerostin (Homo sapiens, UniProt Q9BQB4); assay: FP competition assay; format: binding; conditions: FP competition with probe 15 (table footnote)
T3 sequence (Q9BQB4 24-213): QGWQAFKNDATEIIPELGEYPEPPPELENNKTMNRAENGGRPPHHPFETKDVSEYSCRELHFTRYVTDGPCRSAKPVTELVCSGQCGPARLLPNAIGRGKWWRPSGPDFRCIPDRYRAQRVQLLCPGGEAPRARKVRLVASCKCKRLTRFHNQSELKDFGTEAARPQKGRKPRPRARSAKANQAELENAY

[1] = test system: antithrombine III (AT-III); conditions: cited from earlier work

With `CO[C@H]1O[C@H](COS(=O)(=O)O)[C@@H](O[C@@H]2O[C@@H](C(=O)O)[C@@H](O[C@H]3O[C@H](COS(=O)(=O)O)[C@@H](O[C@@H]4O[C@H](C(=O)O)[C@@H](O[C@H]5O[C@H](COS(=O)(=O)O)[C@@H](O)[C@H](O)[C@H]5NS(=O)(=O)O)[C@H](O)[C@H]4O)[C@H](OS(=O)(=O)O)[C@H]3NS(=O)(=O)O)[C@H](O)[C@H]2OS(=O)(=O)O)[C@H](O)[C@H]1NS(=O)(=O)O` [Fondaparinux, fondaparinux] as the compound, how does the Kd (IL-8) read?
Its Kd is 19 ± 2.5 µM.

What about the Kd (BMP-2) of the same compound?
The Kd was 80.9 ± 8.5 µM.

And the Kd (Sclerostin)?
The Kd was 629 ± 335 µM.

What about the “ligand affinity class” value [1] of the same compound?
Its value is “nanomolar ligand”.

From article PMC6346292 (Chemical Science, 2018)
